How the values were obtained:
[1] = target: Recombinant human Cbl-b (aa 36-427) (Homo sapiens (Human), UniProt Q13191); assay: Cbl-b Biochemical Assay (TR-FRET); settings: read-out: TR-FRET hCbl-b IC50
In short: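 Two-step TR-FRET: 6 nM biotinylated Cbl-b preincubated 30-60 min with compound, then 60 min at RT with 1-2.5 nM Src-Zap70 and 0.5 mM ATP in HEPES pH 7.0 buffer, 1% DMSO. Stopped with 5 mM EDTA plus 100 nM UBE2D2-Ub-FL-BODIPY and 1 nM streptavidin-Tb, 60 min; 520 nm signal; IC50 from 4-parameter fit.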

[2] = target: Recombinant human c-Cbl (aa 47-435) (Homo sapiens (Human), UniProt P22681); assay: c-Cbl Biochemical Assay (TR-FRET)
In short: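 Biotinylated c-Cbl (6 nM) preincubated 30 min RT with compound, then reacted 60-90 min with Src-Zap70 (2.5-10 nM) and 0.5 mM ATP, pH 7.0 HEPES buffer. Stopped with EDTA; 100 nM Bodipy-ubiquitinated UBE2D2 binding read by TR-FRET after 60 min; IC50 from 4-parameter fit.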

Recombinant human Cbl-b (aa 36-427), sequence (Q13191 36-427): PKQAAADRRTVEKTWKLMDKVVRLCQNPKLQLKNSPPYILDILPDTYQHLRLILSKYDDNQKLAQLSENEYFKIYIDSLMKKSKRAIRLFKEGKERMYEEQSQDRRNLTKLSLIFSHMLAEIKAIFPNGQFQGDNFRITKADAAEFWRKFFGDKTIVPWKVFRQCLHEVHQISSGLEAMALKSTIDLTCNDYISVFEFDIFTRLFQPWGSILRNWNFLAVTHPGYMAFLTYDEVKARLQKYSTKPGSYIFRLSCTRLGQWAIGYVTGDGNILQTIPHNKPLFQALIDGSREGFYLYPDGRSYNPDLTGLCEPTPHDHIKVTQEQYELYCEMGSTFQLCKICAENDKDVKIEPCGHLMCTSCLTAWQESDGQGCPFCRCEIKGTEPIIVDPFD
Recombinant human c-Cbl (aa 47-435), sequence (P22681 47-435): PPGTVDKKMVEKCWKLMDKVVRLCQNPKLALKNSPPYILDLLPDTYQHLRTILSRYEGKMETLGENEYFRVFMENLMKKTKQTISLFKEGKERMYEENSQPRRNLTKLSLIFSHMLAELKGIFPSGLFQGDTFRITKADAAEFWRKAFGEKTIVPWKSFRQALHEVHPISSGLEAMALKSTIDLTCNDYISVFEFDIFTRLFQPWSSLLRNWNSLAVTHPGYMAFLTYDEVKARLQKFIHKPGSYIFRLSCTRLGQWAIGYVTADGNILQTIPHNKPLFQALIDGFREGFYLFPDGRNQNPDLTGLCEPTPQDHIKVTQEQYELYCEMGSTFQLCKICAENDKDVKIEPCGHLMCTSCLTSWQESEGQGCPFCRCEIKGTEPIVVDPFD

Row | SMILES | IC50 [1] | IC50 [2]
1 | Cn1cnnc1-c1cc(C#N)ccc1-c1cc(C2CC2)nc(N2Cc3ccc(CNC4CC4)cc3C2=O)c1 [ALQ-2, 4-(2-Cyclopropyl-6-{6-[(cyclopropylamino)methyl]-1-oxo-3H-isoindol-2-yl}pyridin-4-yl)-3-(4-methyl-1,2,4-triazol-3-yl)benzonitrile] | ≤ 0.2 µM | ≤ 0.2 µM
2 | Cn1cnnc1-c1cc(C#N)ccc1-c1cc(C2CC2)nc(N2Cc3c(F)cc(CNC4CC4)cc3C2=O)c1 [ALR-1, 4-(2-Cyclopropyl-6-{6-[(cyclopropylamino)methyl]-4-fluoro-1-oxo-3H-isoindol-2-yl}pyridin-4-yl)-3-(4-methyl-1,2,4-triazol-3-yl)benzonitrile] | ≤ 0.2 µM | ≤ 0.2 µM
3 | C[C@H]1CCCN(Cc2ccc3c(c2)C(=O)N(c2cc(-c4ccc(C#N)cc4-c4nncn4C)cc(C4CC4)n2)C3)C1 [ALS-1, 4-[2-Cyclopropyl-6-(6-{[(3S)-3-methylpiperidin-1-yl]methyl}-1-oxo-3H-isoindol-2-yl)pyridin-4-yl]-3-(4-methyl-1,2,4-triazol-3-yl)benzonitrile] | ≤ 0.2 µM | ≤ 0.2 µM
4 | COCC1(NCc2ccc3c(c2)C(=O)N(c2cc(-c4ccc(C#N)cc4-c4nncn4C)cc(C4CC4)n2)C3)CC1 [ALT-2, 4-{2-Cyclopropyl-6-[6-({[1-(methoxymethyl)cyclopropyl]amino}methyl)-1-oxo-3H-isoindol-2-yl]pyridin-4-yl}-3-(4-methyl-1,2,4-triazol-3-yl)benzonitrile] | ≤ 0.2 µM | ≤ 0.2 µM
5 | Cn1cnnc1-c1cc(C#N)ccc1-c1cc(C2CC2)nc(N2Cc3ccc(CN4CCC(F)(F)CC4)cc3C2=O)c1 [ALU-2, 4-(2-Cyclopropyl-6-{6-[(4,4-difluoropiperidin-1-yl)methyl]-1-oxo-3H-isoindol-2-yl}pyridin-4-yl)-3-(4-methyl-1,2,4-triazol-3-yl)benzonitrile] | ≤ 0.2 µM | ≤ 0.2 µM
6 | COC(F)(F)CNCc1cc(F)c2c(c1)C(=O)N(c1cc(-c3ccc(C#N)cc3-c3nncn3C)cc(C3CC3)n1)C2 [ALV-4, 4-[2-Cyclopropyl-6-(6-{[(2,2-difluoro-2-methoxyethyl)amino]methyl}-4-fluoro-1-oxo-3H-isoindol-2-yl)pyridin-4-yl]-3-(4-methyl-1,2,4-triazol-3-yl)benzonitrile] | ≤ 0.2 µM | ≤ 0.2 µM
7 | Cn1cnnc1-c1cc(C#N)ccc1-c1cc(C2CC2)nc(N2Cc3c(F)cc(CNCC(F)(F)F)cc3C2=O)c1 [ALW-1, -[2-Cyclopropyl-6-(4-fluoro-1-oxo-6-{[(2,2,2-trifluoroethyl)amino]methyl}-3H-isoindol-2-yl)pyridin-4-yl]-3-(4-methyl-1,2,4-triazol-3-yl)benzonitrile] | ≤ 0.2 µM | ≤ 0.2 µM
8 | Cn1cnnc1-c1cc(C#N)ccc1-c1cc(C2CC2)nc(N2Cc3c(cc(CO)c(F)c3F)C2=O)c1 [ALX-9, 4-{2-Cyclopropyl-6-[4,5-difluoro-6-(hydroxymethyl)-1-oxo-3H-isoindol-2-yl]pyridin-4-yl}-3-(4-methyl-1,2,4-triazol-3-yl)benzonitrile] | ≤ 0.2 µM | ≤ 0.2 µM
9 | Cn1cnnc1-c1cc(C#N)ccc1-c1cc(C2CC2)nc(N2Cc3c(cc(CNCCOC(F)(F)F)c(F)c3F)C2=O)c1 [ALY-2, 4-{2-Cyclopropyl-6-[4,5-difluoro-1-oxo-6-({[2-(trifluoromethoxy)ethyl]amino}methyl)-3H-isoindol-2-yl]pyridin-4-yl}-3-(4-methyl-1,2,4-triazol-3-yl)benzonitrile] | ≤ 0.2 µM | ≤ 0.2 µM
10 | CNCCNCc1ccc2c(c1)C(=O)N(c1cc(-c3ccc(C#N)cc3-c3nncn3C)cc(C3CC3)n1)C2 [ALZ-3, 4-{2-Cyclopropyl-6-[6-({[2-(methylamino)ethyl]amino}methyl)-1-oxo-3H-isoindol-2-yl]pyridin-4-yl}-3-(4-methyl-1,2,4-triazol-3-yl)benzonitrile] | ≤ 0.2 µM | ≤ 0.2 µM
11 | Cn1cnnc1-c1cc(C#N)ccc1-c1cc(C2CC2)nc(N2Cc3ccc(CNCC4(CO)CCC4)cc3C2=O)c1 [AMA-2, 4-(2-Cyclopropyl-6-{6-[({[1-(hydroxymethyl)cyclobutyl]methyl}amino)methyl]-1-oxo-3H-isoindol-2-yl}pyridin-4-yl)-3-(4-methyl-1,2,4-triazol-3-yl)benzonitrile] | ≤ 0.2 µM | ≤ 0.2 µM
12 | CC(=O)NCCNCc1ccc2c(c1)C(=O)N(c1cc(-c3ccc(C#N)cc3-c3nncn3C)cc(C3CC3)n1)C2 [AMB-1, N-(2-{[(2-{4-[4-Cyano-2-(4-methyl-1,2,4-triazol-3-yl)phenyl]-6-cyclopropylpyridin-2-yl}-3-oxo-1H-isoindol-5-yl)methyl]amino}ethyl)acetamide] | ≤ 0.2 µM | ≤ 0.2 µM
13 | Cn1cnnc1-c1cc(C#N)ccc1-c1cc(C2CC2)nc(N2Cc3c(F)cc(CNCC4CC4)cc3C2=O)c1 [AMC-2, 4-[2-Cyclopropyl-6-(6-{[(cyclopropylmethyl)amino]methyl}-4-fluoro-1-oxo-3H-isoindol-2-yl)pyridin-4-yl]-3-(4-methyl-1,2,4-triazol-3-yl)benzonitrile] | ≤ 0.2 µM | ≤ 0.2 µM
14 | CO[C@@H](C)[C@H](C)NCc1cc(F)c2c(c1)C(=O)N(c1cc(-c3ccc(C#N)cc3-c3nncn3C)cc(C3CC3)n1)C2 [AMD-2, 4-{2-Cyclopropyl-6-[4-fluoro-6-({[(2S,3S)-3-methoxybutan-2-yl]amino}methyl)-1-oxo-3H-isoindol-2-yl]pyridin-4-yl}-3-(4-methyl-1,2,4-triazol-3-yl)benzonitrile] | ≤ 0.2 µM | ≤ 0.2 µM
15 | Cn1cnnc1-c1cc(C#N)ccc1-c1cc(C2CC2)nc(N2Cc3c(F)cc(CNCCC(F)F)cc3C2=O)c1 [AME-2, 4-[2-Cyclopropyl-6-(6-{[(3,3-difluoropropyl)amino]methyl}-4-fluoro-1-oxo-3H-isoindol-2-yl)pyridin-4-yl]-3-(4-methyl-1,2,4-triazol-3-yl)benzonitrile] | ≤ 0.2 µM | ≤ 0.2 µM
16 | CN(Cc1ccc2c(c1)C(=O)N(c1cc(-c3ccc(C#N)cc3-c3nncn3C)cc(C3CC3)n1)C2)CC1CCC1 [AMF-1, 4-[2-(6-{[(cyclobutylmethyl)(methyl)amino]methyl}-1-oxo-3H-isoindol-2-yl)-6-cyclopropylpyridin-4-yl]-3-(4-methyl-1,2,4-triazol-3-yl)benzonitrile] | ≤ 0.2 µM | ≤ 0.2 µM
17 | CN(Cc1ccc2c(c1)C(=O)N(c1cc(-c3ccc(Cl)cc3-c3nncn3C)cc(C3CC3)n1)C2)CC1(O)CCC1 [AMG-1, 2-(4-(4-Chloro-2-(4-methyl-4H-1,2,4-triazol-3-yl)phenyl)-6-cyclopropylpyridin-2-yl)-6-((((1-hydroxycyclobutyl)methyl)(methyl)amino)methyl)isoindolin-1-one] | ≤ 0.2 µM | ≤ 0.2 µM
18 | CN(Cc1ccc2c(c1)C(=O)N(c1cc(-c3ccc(C#N)cc3-c3nncn3C)cc(C3CC3)n1)C2)CC(C)(C)O [AMH-1, 4-[2-Cyclopropyl-6-(6-{[(2-hydroxy-2-methylpropyl)(methyl)amino]methyl}-1-oxo-3H-isoindol-2-yl)pyridin-4-yl]-3-(4-methyl-1,2,4-triazol-3-yl)benzonitrile] | ≤ 0.2 µM | ≤ 0.2 µM
19 | Cn1cnnc1-c1cc(F)ccc1-c1cc(C2CC2)nc(N2Cc3c(F)cc(CO)cc3C2=O)c1 [AMI-1, 2-{6-Cyclopropyl-4-[4-fluoro-2-(4-methyl-1,2,4-triazol-3-yl)phenyl]pyridin-2-yl}-4-fluoro-6-(hydroxymethyl)-3H-isoindol-1-one] | ≤ 0.2 µM | ≤ 0.2 µM
20 | Cn1cnnc1-c1cc(F)ccc1-c1cc(C2CC2)nc(N2Cc3c(F)cc(CNCC4(O)CCC4)cc3C2=O)c1 [AMJ-1, 2-{6-Cyclopropyl-4-[4-fluoro-2-(4-methyl-1,2,4-triazol-3-yl)phenyl]pyridin-2-yl}-4-fluoro-6-({[(1-hydroxycyclobutyl)methyl]amino}methyl)-3H-isoindol-1-one] | ≤ 0.2 µM | ≤ 0.2 µM
21 | CNCCNCc1cc2c(c(C(F)(F)F)c1)CN(c1cc(-c3ccc(C#N)cc3-c3nncn3C)cc(C3CC3)n1)C2=O [AMK-3, 4-{2-Cyclopropyl-6-[6-({[2-(methylamino)ethyl]amino}methyl)-1-oxo-4-(trifluoromethyl)-3H-isoindol-2-yl]pyridin-4-yl}-3-(4-methyl-1,2,4-triazol-3-yl)benzonitrile] | ≤ 0.2 µM | ≤ 0.2 µM
22 | CN(Cc1cc(F)c2c(c1)C(=O)N(c1cc(-c3ccc(F)cc3-c3nncn3C)cc(C3CC3)n1)C2)CC1(O)CCC1 [AML-1, 2-{6-Cyclopropyl-4-[4-fluoro-2-(4-methyl-1,2,4-triazol-3-yl)phenyl]pyridin-2-yl}-4-fluoro-6-({[(1-hydroxycyclobutyl)methyl](methyl)amino}methyl)-3H-isoindol-1-one] | ≤ 0.2 µM | ≤ 0.2 µM
23 | CN(Cc1ccc2c(c1)C(=O)N(c1cc(-c3ccc(F)cc3-c3nncn3C)cc(C3CC3)n1)C2)CC(C)(C)O [AMM-1, 2-{6-Cyclopropyl-4-[4-fluoro-2-(4-methyl-1,2,4-triazol-3-yl)phenyl]pyridin-2-yl}-6-{[(2-hydroxy-2-methylpropyl)(methyl)amino]methyl}-3H-isoindol-1-one] | ≤ 0.2 µM | ≤ 0.2 µM
24 | Cn1cnnc1-c1cc(C#N)ccc1-c1cc(C2CC2)nc(N2Cc3ccc(CN4C[C@@H]5C[C@H]4CO5)cc3C2=O)c1 [AMN-1, 4-(2-Cyclopropyl-6-{6-[(1S,4S)-2-oxa-5-azabicyclo[2.2.1]heptan-5-ylmethyl]-1-oxo-3H-isoindol-2-yl}pyridin-4-yl)-3-(4-methyl-1,2,4-triazol-3-yl)benzonitrile] | ≤ 0.2 µM | ≤ 0.2 µM
